SMILES strings stand for the structures.

Common to all, as to format: cell-based
For one test, the system named is Botrytis cinerea. The test is described as follows: Microtiterplate test against grey mold Botrytis cinerea (Botrci), M1 / C1. The conditions noted are these: comparison test C1, control = 100%.
A further test deals with Pyricularia oryzae. The conditions noted are these: comparison test C2, control = 100%.
Another test has as its system Septoria tritici. Description: Microtiterplate test against leaf blotch on wheat caused by Septoria tritici (Septtr), M3 / C4. The conditions noted are these: comparison test C4, control = 100%.
The subject of the next test is Leptosphaeria nodorum. Description: Microtiterplate test against wheat leaf spots caused by Leptosphaeria nodorum (Leptno), C3. The conditions noted are these: comparison test C3, control = 100%.

Turning to `Cc1cc(Oc2ccc(Cl)cc2)ccc1C(O)(Cn1cncn1)C(F)(F)F` (stereo not drawn) [Compound I-5, 2-[4-(4-chlorophenoxy)-2-methyl-phenyl]-1,1,1-trifluoro-3-(1,2,4-triazol-1-yl)propan-2-ol], the “Growth (%) at 31 ppm Botrci” value with Botrytis cinerea was 0%. In addition, in the test with Pyricularia oryzae, the “Growth (%) at 31 ppm Pyrior” value is given as 0%. The “Growth (%) at 2 ppm Septtr” value in the test on Septoria tritici is 2%. In the test on Leptosphaeria nodorum, the “Growth (%) at 2 ppm Leptno” value was 1%.

Take `Cc1cc(Oc2ccc(Cl)cc2)ccc1C(O)(CF)Cn1cncn1` (stereo not drawn) [EP 113 640 A2, compound 53, Table I, reference compound]: the “Growth (%) at 31 ppm Botrci” value in the test on Botrytis cinerea is 63%. Also, the “Growth (%) at 31 ppm Pyrior” value in the test on Pyricularia oryzae is given as 47%. Moreover, the “Growth (%) at 2 ppm Septtr” value in the test on Septoria tritici was 40%. In the test with Leptosphaeria nodorum, the “Growth (%) at 2 ppm Leptno” value is on record as 65%.

On to `Cc1cc(Oc2ccc(Cl)cc2)ccc1C(C)(O)Cn1cncn1` (stereo not drawn) [Compound I-4, 2-[4-(4-chlorophenoxy)-2-methyl-phenyl]-1-(1,2,4-triazol-1-yl)propan-2-ol], for which, in the test on Botrytis cinerea, the “Growth (%) at 31 ppm Botrci” value came to 0%. The “Growth (%) at 31 ppm Pyrior” value in the test on Pyricularia oryzae was found to be 0%. Also, the “Growth (%) at 2 ppm Septtr” value in the test on Septoria tritici is reported as 0%. Besides, in the test on Leptosphaeria nodorum, the “Growth (%) at 2 ppm Leptno” value worked out at 0%.

(Values after US20150284344A1, “Substituted [1,2,4]triazole Compounds” (BASF SE, priority 2012, published 2015).)
